Laboratory results as given in the NIST ThermoML archive (doi:10.1016/j.jct.2013.05.031).

Conditions: for surface tension liquid-gas: Capillary rise; for viscosity / mass density: 101.33 kPa, Liquid; for viscosity: Capillary tube (Ostwald / Ubbelohde) method; for mass density: Pycnometric method

CCCCCCCCCCCC[N+](CC)(CC)CC.O=S(=O)([N-]S(=O)(=O)C(F)(F)F)C(F)(F)F
Conditions	mass density [kg/m3]	surface tension liquid-gas [mN/m]	viscosity [mPa·s]
298 K	1191.1	31.8	311.8
303 K	1187.1	31.3	227.6
308 K	1183.1	30.9	167.7
313 K	1179.4	30.3	137.8
318 K	1175.7	29.9	98.82
323 K	1171.6	29.5	78.71
328 K	1167.9	29.1	62.52
333 K	1164.2	28.5	49.82
338 K	1160.7	28.2	41.48
343 K	1157.2	27.7	34.69
348 K	1153.3	27.2	29.44
353 K	1149.5	26.8	25.13
358 K	1145.5	26.4	21.3
363 K	1141.4	26	18.31
368 K	1137.6	25.5	16.51
373 K	1133.7	25.2	14.2

CCCCCC[N+](CC)(CC)CC.O=S(=O)([N-]S(=O)(=O)C(F)(F)F)C(F)(F)F [triethylhexylammonium bis((trifluoromethyl)sulfonyl)imide]
Conditions	mass density [kg/m3]	surface tension liquid-gas [mN/m]	viscosity [mPa·s]
298 K	1291.4	34.1	186.6
303 K	1287.4	33.7	137.9
308 K	1283.4	33.3	105.1
313 K	1279.5	32.9	81.64
318 K	1275.2	32.5	65.32
323 K	1271.3	32.1	52.03
328 K	1267.1	31.7	42.34
333 K	1262.5	31.3	35.41
338 K	1258.5	30.9	28.94
343 K	1254.5	30.5	24.77
348 K	1251.3	30.1	20.96
353 K	1247.3	29.7	18.03
358 K	1243.3	29.3	15.83
363 K	1238.4	28.9	13.9
368 K	1234.9	28.5	12.25
373 K	1231.1	28.2	10.86

CCCCC[N+](CC)(CC)CC.O=S(=O)([N-]S(=O)(=O)C(F)(F)F)C(F)(F)F [triethylpentylammonium bis(trifluoromethylsulfonyl)imide]
Conditions	mass density [kg/m3]	surface tension liquid-gas [mN/m]	viscosity [mPa·s]
298 K	1321.5	35.7	161.6
303 K	1317.4	35.4	121.4
308 K	1313.2	35	92.11
313 K	1308.9	34.7	71.86
318 K	1304.9	34.3	57.52
323 K	1301	34	46.74
328 K	1296.6	33.6	37.78
333 K	1293.1	33.3	31.43
338 K	1289.1	32.9	26.57
343 K	1284.7	32.6	22.47
348 K	1280.9	32.2	19.27
353 K	1277.3	31.8	16.71
358 K	1272.9	31.5	14.79
363 K	1268.6	31.1	12.87
368 K	1265.1	30.7	11.5
373 K	1260.7	30.4	10.17

CCCCCCCC[N+](CC)(CC)CC.O=S(=O)([N-]S(=O)(=O)C(F)(F)F)C(F)(F)F [triethyloctylammonium bis[(trifluoromethyl)sulfonyl]imide]
Conditions	mass density [kg/m3]	surface tension liquid-gas [mN/m]	viscosity [mPa·s]
298 K	1251.2	33.1	221.4
303 K	1247.2	32.8	163.9
308 K	1242.9	32.3	124.7
313 K	1239.4	31.8	96.76
318 K	1235.2	31.4	76.47
323 K	1231.3	31	60.52
328 K	1227.5	30.6	48.63
333 K	1223.2	30.1	39.85
338 K	1219	29.7	33.2
343 K	1216	29.3	28.23
348 K	1212.9	28.9	23.8
353 K	1207.8	28.6	20.36
358 K	1203.5	28.1	17.83
363 K	1200.2	27.7	15.55
368 K	1196	27.3	13.5
373 K	1192.3	26.9	12.05
